Assay results published in paper PMC6300691, “Enhancement of Heat Stability and Kinetic Parameters of the Maize Endosperm ADP-Glucose Pyrophosphorylase by Mutagenesis of Amino Acids in the Small Subunit With High B Factors” (Frontiers in Plant Science, 2018).
Changes are numbered by the printed parent chain.

Tests used:
Format in all cases: biochemical
[1] = target: T1, E123G, R331K (Zea mays, UniProt P55241+Q947C0, E123G/R331K); experiment: Activation constant from initial rates with varied 3-PGA (0-1 mM) at 2 mM ATP and 2 mM G-1-P, pH 7.4, 15 mM MgCl2, fitted to V = Vmin + Vmax*X/(Ka + X).
T1 construct: BT2 variant with wild type SH2, E. coli, purified
From the text: (§1) All reactions were developed as above.

[2] = target: T2, E123G, R331K, L404H (Zea mays, UniProt P55241+Q947C0, E123G/R331K/L404H); experiment: as above
T2 construct: BT2 variant with wild type SH2, E. coli, purified
From the text: as §1

[3] = target: T3, E123Q (Zea mays, UniProt P55241+Q947C0, E123Q); experiment: as above
T3 construct: BT2 variant with wild type SH2, E. coli, purified
From the text: as §1

[4] = target: T4, E123V (Zea mays, UniProt P55241+Q947C0, E123V); experiment: as above
T4 construct: BT2 variant with wild type SH2, E. coli, purified
From the text: as §1

[5] = target: T5, K402R (Zea mays, UniProt P55241+Q947C0, K402R); experiment: as above
T5 construct: BT2 variant with wild type SH2, E. coli, purified
From the text: as §1

[6] = target: T6, K403L (Zea mays, UniProt P55241+Q947C0, K403L); experiment: as above
T6 construct: BT2 variant with wild type SH2, E. coli, purified
From the text: as §1

[7] = target: T7, L404H (Zea mays, UniProt P55241+Q947C0, L404H); experiment: as above
T7 construct: BT2 variant with wild type SH2, E. coli, purified
From the text: as §1

[8] = target: T8, R331K (Zea mays, UniProt P55241+Q947C0, R331K); experiment: as above
T8 construct: BT2 variant with wild type SH2, E. coli, purified
From the text: as §1

[9] = target: T9, SH2-E (Zea mays, UniProt P55241+Q947C0, N131R/T142F/A160T/Q261S/A396S/V416I/C424V/S444A); experiment: as above
T9 construct: SH2-E with wild type BT2 (SH2-E/BT2-WT), E. coli, purified
T9 sequence (Q947C0 1-475): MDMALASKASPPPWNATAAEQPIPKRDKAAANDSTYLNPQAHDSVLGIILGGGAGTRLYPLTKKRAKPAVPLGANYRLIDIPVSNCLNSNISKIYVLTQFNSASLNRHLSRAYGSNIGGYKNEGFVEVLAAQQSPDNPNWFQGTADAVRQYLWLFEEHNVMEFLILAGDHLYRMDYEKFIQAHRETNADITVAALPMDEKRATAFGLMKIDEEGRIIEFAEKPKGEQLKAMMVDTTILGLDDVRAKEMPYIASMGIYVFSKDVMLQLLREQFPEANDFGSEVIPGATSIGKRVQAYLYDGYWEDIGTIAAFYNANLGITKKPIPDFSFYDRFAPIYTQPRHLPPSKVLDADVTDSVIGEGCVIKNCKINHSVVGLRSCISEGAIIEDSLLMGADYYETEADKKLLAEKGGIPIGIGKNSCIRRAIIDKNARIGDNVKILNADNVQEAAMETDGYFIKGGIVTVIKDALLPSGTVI
T9 sequence (P55241 46-516 N131R/T142F/A160T/Q261S/A396S/V416I/C424V/S444A): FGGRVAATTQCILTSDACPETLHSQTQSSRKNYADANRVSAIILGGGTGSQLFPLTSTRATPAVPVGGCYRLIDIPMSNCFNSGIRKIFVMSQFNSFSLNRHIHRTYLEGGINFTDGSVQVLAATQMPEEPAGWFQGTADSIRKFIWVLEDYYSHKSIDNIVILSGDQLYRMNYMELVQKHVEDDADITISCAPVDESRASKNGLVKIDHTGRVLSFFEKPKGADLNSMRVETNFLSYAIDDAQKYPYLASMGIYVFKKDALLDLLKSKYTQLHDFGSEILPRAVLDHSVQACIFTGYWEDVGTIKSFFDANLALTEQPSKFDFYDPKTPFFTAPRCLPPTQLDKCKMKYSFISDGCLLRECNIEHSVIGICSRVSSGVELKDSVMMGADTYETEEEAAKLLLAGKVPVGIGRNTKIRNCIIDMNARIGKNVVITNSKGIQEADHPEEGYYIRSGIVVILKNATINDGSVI
From the text: as §1

[10] = target: T10, SH2-ISM (Zea mays, UniProt P55241+Q947C0, Q96G/D161G/A443R); experiment: as above
T10 construct: SH2-ISM with wild type BT2 (SH2-ISM/BT2-WT), E. coli, purified
T10 sequence (Q947C0 1-475): T9 sequence (Q947C0 1-475)
T10 sequence (P55241 46-516 Q96G/D161G/A443R): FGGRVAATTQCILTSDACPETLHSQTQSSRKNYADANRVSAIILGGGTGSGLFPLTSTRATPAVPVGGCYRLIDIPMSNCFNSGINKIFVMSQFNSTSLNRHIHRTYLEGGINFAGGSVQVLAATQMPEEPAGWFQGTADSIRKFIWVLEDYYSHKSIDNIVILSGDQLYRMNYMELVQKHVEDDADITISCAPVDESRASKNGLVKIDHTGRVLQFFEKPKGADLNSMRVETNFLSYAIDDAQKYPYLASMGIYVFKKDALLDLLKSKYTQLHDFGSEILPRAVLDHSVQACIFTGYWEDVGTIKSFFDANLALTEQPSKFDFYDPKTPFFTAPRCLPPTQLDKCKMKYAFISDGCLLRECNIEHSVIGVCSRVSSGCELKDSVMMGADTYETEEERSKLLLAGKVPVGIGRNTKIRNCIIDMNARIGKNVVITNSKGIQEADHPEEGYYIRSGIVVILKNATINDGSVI
From the text: as §1

[11] = target: T10, SH2-ISM; experiment: Pi inhibition study without 3-PGA, ATP varied (0.1-3 mM) at fixed Pi levels (10-30 mM) and sub-saturating G-1-P (1 mM), fit to mixed-type inhibition equations.; details: read-out: Km (mM), varied substrate ATP, Pi inhibition in the absence of 3-PGA
Method: (§2) Pi inhibition was carried out in both the presence and absence of 3-PGA with the Pi and substrate concentrations listed below.
(§3) Pi inhibition patterns in the presence and absence of 3PGA were also determined. Pi inhibition patterns were obtained by varying one substrate at several fixed concentrations of Pi, while holding the co-substrate at constant sub-saturating levels.

[12] = target: T11, SH2-E/BT2-BF (Zea mays, UniProt P55241+Q947C0, E123G/N131R/T142F/A160T/Q261S/R331K/A396S/K402R/V416I/C424V/S444A); experiment: as above; details: read-out: Km (mM), varied substrate ATP, Pi inhibition in the absence of 3-PGA
T11 construct: SH2-E co-expressed with BT2-BF, E. coli, purified
T11 sequence (Q947C0 1-475 E123G/R331K/K402R): T9 sequence (Q947C0 1-475) with E123G, R331K, K402R
T11 sequence (P55241 46-516 N131R/T142F/A160T/Q261S/A396S/V416I/C424V/S444A): T9 sequence (P55241 46-516 N131R/T142F/A160T/Q261S/A396S/V416I/C424V/S444A)
Method: as §2, §3

T2 sequence (Q947C0 1-475 E123G/R331K/L404H): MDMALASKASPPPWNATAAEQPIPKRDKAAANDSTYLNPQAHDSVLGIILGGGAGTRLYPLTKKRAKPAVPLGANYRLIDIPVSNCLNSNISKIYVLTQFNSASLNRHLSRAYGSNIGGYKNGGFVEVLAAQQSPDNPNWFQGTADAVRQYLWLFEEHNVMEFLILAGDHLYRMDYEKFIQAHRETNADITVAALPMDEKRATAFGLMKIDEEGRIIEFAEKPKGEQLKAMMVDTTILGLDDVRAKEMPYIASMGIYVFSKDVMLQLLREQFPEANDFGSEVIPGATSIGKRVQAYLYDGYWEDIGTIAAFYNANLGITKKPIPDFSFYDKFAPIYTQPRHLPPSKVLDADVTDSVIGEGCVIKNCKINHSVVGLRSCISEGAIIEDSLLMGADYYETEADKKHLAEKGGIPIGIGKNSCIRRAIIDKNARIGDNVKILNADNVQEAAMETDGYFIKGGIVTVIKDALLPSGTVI
T2 sequence (P55241 46-516, stated change not applied): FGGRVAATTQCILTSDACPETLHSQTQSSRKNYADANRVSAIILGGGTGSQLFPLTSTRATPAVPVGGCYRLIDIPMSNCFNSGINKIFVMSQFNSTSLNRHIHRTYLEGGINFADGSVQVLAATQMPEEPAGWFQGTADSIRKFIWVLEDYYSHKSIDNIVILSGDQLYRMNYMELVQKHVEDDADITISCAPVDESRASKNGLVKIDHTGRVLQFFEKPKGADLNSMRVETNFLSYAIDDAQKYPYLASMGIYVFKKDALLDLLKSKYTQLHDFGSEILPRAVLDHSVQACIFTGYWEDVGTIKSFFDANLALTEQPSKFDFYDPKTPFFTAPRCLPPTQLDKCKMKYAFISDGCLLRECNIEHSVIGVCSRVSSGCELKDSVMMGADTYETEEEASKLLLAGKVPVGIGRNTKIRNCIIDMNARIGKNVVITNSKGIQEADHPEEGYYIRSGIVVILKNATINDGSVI
T7 sequence (Q947C0 1-475 L404H): as the sequence (Q947C0 1-475 E123G/R331K/L404H) above, with G123E, K331R counted along it
T7 sequence (P55241 46-516, stated change not applied): as the sequence (P55241 46-516, stated change not applied) above
T8 sequence (Q947C0 1-475 R331K): as the sequence (Q947C0 1-475 E123G/R331K/L404H) above, with G123E, H404L counted along it
T8 sequence (P55241 46-516): as the sequence (P55241 46-516, stated change not applied) above
T4 sequence (Q947C0 entry or part of it E123V): as the sequence (Q947C0 1-475 E123G/R331K/L404H) above, with G123V, K331R, H404L counted along it
T4 sequence (P55241 46-516): as the sequence (P55241 46-516, stated change not applied) above
T6 sequence (Q947C0 1-475 K403L): as the sequence (Q947C0 1-475 E123G/R331K/L404H) above, with G123E, K331R, K403L, H404L counted along it
T6 sequence (P55241 46-516): as the sequence (P55241 46-516, stated change not applied) above
T5 sequence (Q947C0 1-475 K402R): as the sequence (Q947C0 1-475 E123G/R331K/L404H) above, with G123E, K331R, K402R, H404L counted along it
T5 sequence (P55241 46-516): as the sequence (P55241 46-516, stated change not applied) above
T3 sequence (Q947C0 1-475 E123Q): as the sequence (Q947C0 1-475 E123G/R331K/L404H) above, with G123Q, K331R, H404L counted along it
T3 sequence (P55241 46-516): as the sequence (P55241 46-516, stated change not applied) above
T1 sequence (Q947C0 1-475 E123G/R331K): as the sequence (Q947C0 1-475 E123G/R331K/L404H) above, with H404L counted along it
T1 sequence (P55241 46-516): as the sequence (P55241 46-516, stated change not applied) above

O=C(O)[C@H](O)COP(=O)(O)O [3-PGA, 3-phosphoglycerate (3-phosphoglyceric acid)]
3-PGA Ka (activation constant) [1]: 0.183 ± 0.024
3-PGA Ka (activation constant) [2]: 0.059 ± 0.11
3-PGA Ka (activation constant) [3]: 0.12 ± 0.022
3-PGA Ka (activation constant) [4]: 0.10 ± 0.036
3-PGA Ka (activation constant) [5]: 0.077 ± 0.014
3-PGA Ka (activation constant) [6]: 0.41 ± 0.049
3-PGA Ka (activation constant) [7]: 0.05 ± 0.008
3-PGA Ka (activation constant) [8]: 0.07 ± 0.008
3-PGA Ka (activation constant) [9]: 0.070 ± 0.01
3-PGA Ka (activation constant) [10]: 0.056 ± 0.008

Nc1ncnc2c1ncn2[C@@H]1O[C@H](COP(=O)(O)OP(=O)(O)OP(=O)(O)O)[C@@H](O)[C@H]1O [ATP, adenosine 5'-triphosphate]
Km [11]: 0.54 ± 0.057 mM
Km [12]: 4.98 ± 0.66 mM
